The nature of data set [1]: Oral non-human primate crossover PK study (Example 7). The format is in vivo, cynomolgus monkeys. As to conditions: four male cynomolgus monkeys, single PO capsule, 34.2 mg/kg fumarate salt (M-3, N-3); for C24(h): 24 hours post-dose, 30 mg/kg free base (K-13); for AUC / Tmax: equivalent on a molar basis to 30 mg/kg free base (K-13). The text has this: An objective of this study is to determine the Pharmacokinetic (PK) profile of the Test Article following a single oral administration to four male non-human primate cynomolgus monkeys with one (1) week wash out periods.
Four male animals are used for this study, and the four study animals are used for each of three dosing phases with one-week washout periods. Food is withheld overnight prior to dose administration, and food is returned four hours post-dose administration. Water is provided ad libitum by automatic watering device. Two of the four animals are previously treated with Compound 1, and the other two are Compound 1 naive. Test Article (M-3, N-3, or K-13) are provided as capsulized powders; stored at room temperature protected from light in, for example, a polyolefin bottle.

A short description of data set [2]: Intrinsic dissolution rate and solubility in 0.1 N HCl with 1% Tween 80 (USP <1087>). The format is physicochemical. As to conditions: 0.1 N HCl with 1% Tween 80, 37° C. The procedure: The intrinsic dissolution rate was determined by forming compacted pellets of approximately 75 mg of API using a compression force of 1200 pounds of force, and each pellet (die surface area: 0.5 cm^2) was immersed into a flat bottom vessel containing 500 mL of medium (aqueous 0.1 N HCl with 1% Tween 80 (polyoxyethylene (20) sorbitan monooleate)), using a Distek 2100A dissolution bath, and Distek Circulator/heater (set to 37° C.), with a paddle speed of 100 rpm. An aliquot of the sample (1 mL) was pulled from dissolution media at 15, 30, 45, 60, 75, 90, 105, and 120 minutes, filtered, and analyzed by HPLC. The slope of the dissolution profile corresponded to an intrinsic dissolution rate of hemi-fumarate salt Form B of 6.2 μg/(min·cm^2) as compared to 8.9 μg/(min·cm^2) for Compound 1 (free base). Determination of intrinsic dissolution rate (IDR) was performed for Compound 1 and seven different salts of Compound 1 according to USP <1087> in 0.1 N hydrochloric acid with 1% Tween 80 (Polyoxyethylene […] sorbitan monooleate). Compacted pellets containing approximately 75 mg API were prepared using a compression force of 1200 pounds of force, and each pellet (die surface area: 0.5 cm^2) was immersed into a flat bottom vessel containing 500 mL of medium, using a Distek 2100A dissolution bath, and Distek Circulator/heater (set to 37° C.), with a paddle speed of 100 rpm. An aliquot of the sample (1 mL) was pulled from dissolution media at 15, 30, 45, 60, 75, 90, 105, and 120 minutes, filtered, and analyzed by HPLC. HPLC for IDR and solid-state stability analyses were conducted with an Agilent 1260 Infinity system equipped with a G1311B Quad pump, […] Autosampler, G1330B auto-sampler thermostat, G1316A Thermostatted Column Compartment with a column switch valve, and […] diode array detector.

Data set [3] in a line: Pharmacokinetic analysis of Compound 1 and its salts after oral capsule administration (Example 4). The format is in vivo, cynomolgus monkeys. As to conditions: 3 male cynomolgus monkeys, single PO capsule, 30 mg/kg, plasma Compound 1. The procedure: A pharmacokinetic analysis was performed comparing administration of Compound 1 with certain salts of Compound 1 after oral (PO) administration in 3 male cynomolgus monkeys. The subjects received a single PO oral gavage of active pharmaceutical ingredient (API) (e.g., Compound 1 fumarate, Compound 1 sulfate, Compound 1 hydrochloride, Compound 1 phosphate, Compound 1 tosylate, Compound 1 malonate, Compound 1 maleate, or Compound 1 free base) in a capsule at a dose of 30 mg/kg. Following dose administration, the animals were flushed with approximately 10 milliliters of tap water to ensure all API was administered. Animals were observed twice daily and at sample collection time-points for any abnormal clinical and behavioral signs. Body weights were taken prior to dosing and weekly thereafter until study termination. Blood samples (0.5 mL) were collected pre-dose, 15 minutes, 30 minutes, and 1, 2, 4, 6, 8, 10, 12, and 24 hours post-dose. Each blood sample was collected from the monkey's femoral, saphenous or other available vein via direct venipuncture, placed into a polypropylene tube containing K2EDTA as the anticoagulant, and gently inverted several times to mix. The blood samples were kept on wet ice until centrifugation. Blood was centrifuged within 10 minutes of collection. The samples were centrifuged at a temperature of 4° C., at 3,000 g, for 5 minutes. The resulting plasma (˜0.25 mL) was divided into two equal aliquots (125 μL each) into polypropylene tubes, designated as Set A and Set B, after centrifugation. Plasma samples designated for certain metabolites (Set A) were treated with 12.5 μL of 2 M ascorbic acid (plasma: ascorbic acid=[…], v:v) prepared beforehand by combining 0.352 g of ascorbic acid into 1 mL of sterile water in a glass vial and mixing thoroughly. […] Once plasma was prepared, the samples were snap frozen on dry ice. All plasma samples were stored frozen below −70° C. until analyzed.

Data set [4] is described as follows: Exposure after oral dose of micronized vs non-micronized particles of Compound 1 free base (Example 3). The format is in vivo. Conditions: male Cynomolgus monkeys, QD, 300 mg/kg, plasma, Mean (n = 3). The procedure: Exposure of Compound 1 free base following oral (PO) dose administration of 300 mg/kg/dose of micronized particles (Example 1) and 300 mg/kg/dose non-micronized particles (Example 2) were assessed in male Cynomolgus monkeys. Blood samples were collected in K2EDTA coated polypropylene tubes from the femoral vein and plasma was separated. Samples were drawn at the following time points: pre-dose, 15 min, 30 min, 1, 2, 4, 8, 10, 12, 14, 24, 30, and 48 hours post-dose. The concentrations of Compound 1 were determined by LC-MS/MS and pharmacokinetic parameters were determined using Phoenix WinNonlin v8.0) software. [table]

SMILES strings stand for the structures. Where a name gives a salt, the structure may show the parent alone.

By AUC is commonly meant the area under the concentration-time curve, a measure of exposure. The term Tmax denotes the time at which the peak concentration occurs. Usually Cmax stands for the highest concentration seen after dosing. The term AUC(0-inf) denotes the area under the concentration-time curve extrapolated to infinity. Low readings indicate less exposure, high ones more exposure. As usually defined, the AUC(0-t) is the area under the concentration-time curve up to a stated or last time point. The low end stands for less exposure, the high end for more exposure.

In the case of `[2H]C([2H])([2H])C(c1cc2nnc(-c3cc(F)ccc3F)n2nc1OCc1ncnn1C)(C([2H])([2H])[2H])C([2H])([2H])[2H]` [Compound K-13, 3-(2,5-difluorophenyl)-7-[1,1-di(methyl-d3)ethyl-2,2,2-d3]-6-[(1-methyl-1H-1,2,4-triazol-5-yl)methoxy]-1,2,4-triazolo[4,3-b]pyridazine], in data set [1], the “C24(h)” value stood at 42 ng·mL, the AUC amounted to 1192 ng·h/mL and the time to peak (Tmax) worked out at 14 h.

In the case of `[2H]C([2H])([2H])C(c1cc2nnc(-c3cc(F)ccc3F)n2nc1OCc1ncnn1C)(C([2H])([2H])[2H])C([2H])([2H])[2H]` [Compound M-3], in data set [1], the “C24(h)” value worked out at 603 ng·mL, the AUC is 17826 ng·h/mL and the Tmax came to 10 h.

On to `[2H]C([2H])([2H])C(c1cc2nnc(-c3cc(F)ccc3F)n2nc1OCc1ncnn1C)(C([2H])([2H])[2H])C([2H])([2H])[2H]` [Compound N-3], for which, in data set [1], the “C24(h)” value was 684 ng·mL, the AUC is 21540 ng·h/mL and the time to peak (Tmax) is on record as 4 h.

Turning to `[2H]C([2H])([2H])C(c1cc2nnc(-c3cc(F)ccc3F)n2nc1OCc1ncnn1C)(C([2H])([2H])[2H])C([2H])([2H])[2H]` [Tosylate Salt, 3-(2,5-difluorophenyl)-7-[1,1-di(methyl-d3)ethyl-2,2,2-d3]-6-[(1-methyl-1H-1,2,4-triazol-5-yl)methoxy]-1,2,4-triazolo[4,3-b]pyridazine], in data set [2] (500 mL, pellet about 75 mg, 15 min), the “Solubility, time point 15 min” value worked out at 0.56 µg/mL. Moreover, the “Solubility, time point 30 min” value in data set [2] (500 mL, pellet about 75 mg, 30 min) worked out at 0.638 µg/mL. In addition, the “Solubility, time point 45 min” value in data set [2] (500 mL, pellet about 75 mg, 45 min) was determined as 0.755 µg/mL. In addition, the “Solubility, time point 60 min” value in data set [2] (500 mL, pellet about 75 mg, 60 min) is 0.88 µg/mL. Also, the “Solubility, time point 75 min” value in data set [2] (500 mL, pellet about 75 mg, 75 min) turned out to be 1.02 µg/mL. Also, the “Solubility, time point 90 min” value in data set [2] (500 mL, pellet about 75 mg, 90 min) was determined as 1.15 µg/mL. Moreover, in data set [2] (500 mL, pellet about 75 mg, 105 min), the “Solubility, time point 105 min” value came to 1.43 µg/mL. Besides, the “Solubility, time point 120 min” value in data set [2] (500 mL, pellet about 75 mg, 120 min) stood at 1.39 µg/mL. Besides, in data set [2] (paddle 100 rpm, die surface 0.5 cm^2), the “Intrinsic Dissolution Rate IDR” value is reported as 8.7 μg/(min · cm^2). Further, the “Solubility, Cumulative” value in data set [2] (sum of the 15-120 min time points) is 7.823 µg/mL. Also, in data set [3], the AUClast was found to be 23248 ng·h/mL, the Cmax is recorded as 1629 ng/mL and the Tmax turned out to be 10.7 h.

On to `[2H]C([2H])([2H])C(c1cc2nnc(-c3cc(F)ccc3F)n2nc1OCc1ncnn1C)(C([2H])([2H])[2H])C([2H])([2H])[2H]` [micronized, 3-(2,5-difluorophenyl)-7-[1,1-di(methyl-d3)ethyl-2,2,2-d3]-6-[(1-methyl-1H-1,2,4-triazol-5-yl)methoxy]-1,2,4-triazolo[4,3-b]pyridazine], for which, in data set [4], the AUClast/Dose amounted to 530 ± 537 kg·ng·h/mL/mg and the “AUC∞/Dose” value worked out at 650 ± 730 kg·ng·h/mL/mg. In data set [4] (male, cynomolgus monkey, po), the AUC(0-inf) was determined as 195000 ± 219000 ng·h/mL and the area under the curve AUC(0-t) amounted to 159000 ± 161000 ng·h/mL. The Cmax in data set [4] (male, cynomolgus monkey, po, read-out: Cmax) came out at 6900 ± 5500 ng/mL. The time of peak concentration (Tmax) in data set [4] (male, cynomolgus monkey, po, read-out: Tmax) is 4 ± 3.5 h.

Turning to `[2H]C([2H])([2H])C(c1cc2nnc(-c3cc(F)ccc3F)n2nc1OCc1ncnn1C)(C([2H])([2H])[2H])C([2H])([2H])[2H]` [non-micronized, 3-(2,5-difluorophenyl)-7-[1,1-di(methyl-d3)ethyl-2,2,2-d3]-6-[(1-methyl-1H-1,2,4-triazol-5-yl)methoxy]-1,2,4-triazolo[4,3-b]pyridazine], in data set [4], the AUClast was determined as 89225 ± 104664 ng·h/mL, the AUClast/Dose was found to be 297 ± 349 kg·ng·h/mL/mg, the “AUC∞” value turned out to be 98365 ± 119106 ng·h/mL and the “AUC∞/Dose” value stood at 328 ± 397 kg·ng·h/mL/mg. In data set [4], the Cmax stood at 5373 ± 4112 ng/mL and the time of peak concentration (Tmax) was 3.30 ± 1.20 h.

The values above are taken from patent US20250275966A1, “GABAA RECEPTOR MODULATOR SALTS, PARTICLES, AND USES THEREOF” (Engrail Therapeutics, Inc., priority 2022, published 2025).
